# Assay results published in patent US20260028326A1, “COMPOUND BASED ON ISOINDOLINE-SUBSTITUTED GLUTARIMIDE BACKBONE AND USE THEREOF” (GLUETACS THERAPEUTICS (SHANGHAI) CO., LTD., priority 2022, published 2026).
# pIC50: −log10 of the molar value.
# What was measured:
# [1] = biological target: human Cereblon WT GST-tagged protein (Homo sapiens (Human), UniProt Q96SW2); assay: CRBN-binding affinity, HTRF (CEREBLON BINDING kit)
# In short: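 GST-tagged human WT Cereblon incubated with compound, then Thalidomide-Re tracer and anti-GST Eu antibody added. Displacement read by HTRF, reported as CRBN binding inhibition rate against blank control wells without protein.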
# IKZF3 protein = IKZF3 protein (Homo sapiens (Human), UniProt Q96SW2+Q9UKT9); assay: Western-blot assay of substrate protein degradation in hPBMC, IKZF3; type: cell-based; conditions: for residual substrate protein level, IKZF3: hPBMC cells, compound 500 nM, 24 hours, Western blot
# Chain of IKZF3 protein (Q9UKT9 whole entry): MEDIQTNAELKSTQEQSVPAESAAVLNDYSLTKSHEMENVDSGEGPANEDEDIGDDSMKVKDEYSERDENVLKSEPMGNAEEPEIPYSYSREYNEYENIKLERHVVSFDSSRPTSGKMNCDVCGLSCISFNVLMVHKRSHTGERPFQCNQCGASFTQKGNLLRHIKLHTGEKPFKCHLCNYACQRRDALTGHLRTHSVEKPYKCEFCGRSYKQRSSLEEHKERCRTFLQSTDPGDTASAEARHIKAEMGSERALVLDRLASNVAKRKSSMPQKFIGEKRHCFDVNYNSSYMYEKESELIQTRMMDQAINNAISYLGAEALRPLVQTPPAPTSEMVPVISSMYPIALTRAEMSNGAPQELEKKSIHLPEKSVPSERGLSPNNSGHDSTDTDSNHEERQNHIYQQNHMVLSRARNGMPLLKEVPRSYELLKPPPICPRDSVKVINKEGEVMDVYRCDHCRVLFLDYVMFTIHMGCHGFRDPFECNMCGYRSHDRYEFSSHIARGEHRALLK
# Chain of IKZF3 protein (Q96SW2 whole entry): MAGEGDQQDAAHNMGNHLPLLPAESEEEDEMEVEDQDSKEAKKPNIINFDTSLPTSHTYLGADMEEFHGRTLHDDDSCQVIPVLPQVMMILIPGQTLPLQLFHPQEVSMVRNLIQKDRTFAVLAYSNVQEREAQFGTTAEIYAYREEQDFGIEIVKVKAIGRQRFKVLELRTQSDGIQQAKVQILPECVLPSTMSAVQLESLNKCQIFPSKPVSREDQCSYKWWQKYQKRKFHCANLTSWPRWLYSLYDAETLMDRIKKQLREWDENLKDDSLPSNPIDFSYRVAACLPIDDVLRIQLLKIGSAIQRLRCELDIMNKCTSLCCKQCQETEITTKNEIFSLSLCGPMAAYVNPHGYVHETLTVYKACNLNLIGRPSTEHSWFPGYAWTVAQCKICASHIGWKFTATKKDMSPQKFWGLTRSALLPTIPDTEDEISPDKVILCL
# Chain of IKZF3 protein (Q16531 whole entry partner): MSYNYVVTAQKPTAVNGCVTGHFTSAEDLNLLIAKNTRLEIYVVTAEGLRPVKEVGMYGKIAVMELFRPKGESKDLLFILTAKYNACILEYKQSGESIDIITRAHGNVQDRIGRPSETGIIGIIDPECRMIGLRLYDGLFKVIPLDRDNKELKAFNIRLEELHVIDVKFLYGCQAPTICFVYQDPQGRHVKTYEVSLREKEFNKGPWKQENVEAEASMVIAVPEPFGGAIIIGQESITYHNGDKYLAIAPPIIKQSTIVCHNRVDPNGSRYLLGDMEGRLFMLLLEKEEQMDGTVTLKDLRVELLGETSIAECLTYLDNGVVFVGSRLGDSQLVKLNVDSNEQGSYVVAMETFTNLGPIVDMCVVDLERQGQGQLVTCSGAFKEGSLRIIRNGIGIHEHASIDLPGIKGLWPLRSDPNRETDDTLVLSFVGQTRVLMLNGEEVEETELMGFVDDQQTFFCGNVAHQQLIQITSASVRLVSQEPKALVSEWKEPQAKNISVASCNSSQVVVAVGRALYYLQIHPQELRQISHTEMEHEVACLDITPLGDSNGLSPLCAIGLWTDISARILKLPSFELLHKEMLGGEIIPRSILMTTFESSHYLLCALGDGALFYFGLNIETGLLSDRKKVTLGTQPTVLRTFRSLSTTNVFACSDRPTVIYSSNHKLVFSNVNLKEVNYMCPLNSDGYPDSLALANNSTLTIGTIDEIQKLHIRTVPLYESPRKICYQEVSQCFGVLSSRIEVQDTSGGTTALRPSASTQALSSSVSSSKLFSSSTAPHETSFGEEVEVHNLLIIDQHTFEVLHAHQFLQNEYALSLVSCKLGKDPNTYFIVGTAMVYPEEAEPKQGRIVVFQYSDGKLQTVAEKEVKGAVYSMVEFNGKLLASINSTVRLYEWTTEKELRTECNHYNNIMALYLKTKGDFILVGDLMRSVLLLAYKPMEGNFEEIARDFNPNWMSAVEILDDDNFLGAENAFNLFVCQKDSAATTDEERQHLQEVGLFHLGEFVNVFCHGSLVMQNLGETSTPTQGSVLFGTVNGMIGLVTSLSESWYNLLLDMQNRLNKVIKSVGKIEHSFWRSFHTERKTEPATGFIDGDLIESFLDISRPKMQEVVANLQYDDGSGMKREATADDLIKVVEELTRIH
# CCRF-CEM cells = assay: Tumor cell proliferation IC50 (CCK-8), CCRF-CEM; conditions: Homo sapiens, 96 h, read-out: IC50 for inhibiting the proliferation of tumor cells, CCRF-CEM;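 note: cell viability measured with CCK-8 reagent after compound treatment, IC50 taken from plotted growth inhibition curves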
# IKZF1 protein = IKZF1 protein (Homo sapiens (Human), UniProt Q13422+Q96SW2); assay: Western-blot assay of substrate protein degradation in hPBMC, IKZF1; type: cell-based; conditions: for residual substrate protein level, IKZF1: hPBMC cells, compound 500 nM, 24 hours, Western blot
# Chain of IKZF1 protein (Q13422 whole entry): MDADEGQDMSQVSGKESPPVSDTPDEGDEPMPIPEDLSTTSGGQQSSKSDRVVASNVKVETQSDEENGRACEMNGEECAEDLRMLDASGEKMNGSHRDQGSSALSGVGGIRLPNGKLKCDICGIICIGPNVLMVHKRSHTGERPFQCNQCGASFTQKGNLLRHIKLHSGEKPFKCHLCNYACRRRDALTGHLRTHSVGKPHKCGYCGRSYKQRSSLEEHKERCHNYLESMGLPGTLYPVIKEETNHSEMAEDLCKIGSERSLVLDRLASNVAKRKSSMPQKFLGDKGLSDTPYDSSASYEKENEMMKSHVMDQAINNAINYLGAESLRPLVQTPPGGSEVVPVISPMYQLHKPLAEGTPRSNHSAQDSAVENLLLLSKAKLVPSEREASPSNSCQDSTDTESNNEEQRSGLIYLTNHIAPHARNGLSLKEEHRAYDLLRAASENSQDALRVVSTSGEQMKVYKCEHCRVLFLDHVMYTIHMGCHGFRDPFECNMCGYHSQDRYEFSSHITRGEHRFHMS
# Chain of IKZF1 protein (Q96SW2 whole entry): as the sequence (Q96SW2 whole entry) above
# Chain of IKZF1 protein (Q16531 whole entry partner): as the sequence (Q16531 whole entry partner) above
# GSPT1 protein = GSPT1 protein (Homo sapiens (Human), UniProt P15170+Q96SW2); assay: Western-blot assay of substrate protein degradation in hPBMC, GSPT1; type: cell-based; conditions: for residual substrate protein level, GSPT1: hPBMC cells, compound 500 nM, 24 hours, Western blot
# Chain of GSPT1 protein (P15170 whole entry): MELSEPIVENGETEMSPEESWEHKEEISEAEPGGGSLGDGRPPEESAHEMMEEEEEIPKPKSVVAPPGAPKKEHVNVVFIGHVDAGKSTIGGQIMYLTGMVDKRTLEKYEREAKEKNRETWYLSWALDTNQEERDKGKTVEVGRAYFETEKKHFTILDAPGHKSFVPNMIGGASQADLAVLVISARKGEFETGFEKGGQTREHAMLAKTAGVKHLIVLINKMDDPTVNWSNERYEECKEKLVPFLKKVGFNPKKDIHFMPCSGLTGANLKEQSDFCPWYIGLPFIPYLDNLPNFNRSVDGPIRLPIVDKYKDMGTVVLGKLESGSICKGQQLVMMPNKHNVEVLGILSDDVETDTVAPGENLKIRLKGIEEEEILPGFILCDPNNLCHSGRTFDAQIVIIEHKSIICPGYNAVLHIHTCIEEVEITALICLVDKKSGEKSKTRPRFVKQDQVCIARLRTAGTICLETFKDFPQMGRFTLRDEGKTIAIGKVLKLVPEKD
# Chain of GSPT1 protein (Q96SW2 whole entry): as the sequence (Q96SW2 whole entry) above
# Chain of GSPT1 protein (Q16531 whole entry partner): as the sequence (Q16531 whole entry partner) above
# MM.1S cells = assay: Tumor cell proliferation IC50 (CCK-8), MM.1S; conditions: Homo sapiens, MM1.S, 72 h, read-out: IC50 for inhibiting the proliferation of tumor cells, MM.1S;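 note: viability of cultured cells read by CCK-8 reagent after compound exposure, growth inhibition curves fitted to derive IC50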
# Mino cells = assay: Tumor cell proliferation IC50 (CCK-8), Mino; conditions: Homo sapiens, 72 h, read-out: IC50 for inhibiting the proliferation of tumor cells, Mino;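 note: cell viability assessed with CCK-8 reagent after compound exposure, IC50 derived from plotted growth inhibition curves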
# Protocol: (§1) The tumor cells used herein were cultured in a cell culture medium listed in table A at 37° C. in an incubator with 5% CO2.
# (§2) After the cells were treated with the compounds of the present disclosure for a period of time, the cell viability detection reagent was added to the culture medium for cell viability assessment according to the instructions provided with the CCK-8 kit. […] The growth inhibition of the compounds of the present disclosure on cells was plotted by Prism Graphpad software, and the IC50 values of the compounds of the present disclosure were calculated therefrom.
# Daudi cells = assay: Tumor cell proliferation IC50 (CCK-8), Daudi; conditions: Homo sapiens, read-out: IC50 for inhibiting the proliferation of tumor cells, Daudi;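 note: cell viability read with CCK-8 reagent after compound exposure of Daudi cells, IC50 derived from plotted growth inhibition curves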
# Protocol: as §1, §2
# [2] = hPBMC, 24 h, serially diluted 0.03-1000 nM
# Chain of human Cereblon WT GST-tagged protein (Q96SW2 whole entry): as the sequence (Q96SW2 whole entry) above
Compound,pIC50 [1],"residual substrate protein level, IKZF3 (IKZF3 protein)",pIC50 (CCRF-CEM cells),"residual substrate protein level, IKZF1 (IKZF1 protein)","residual substrate protein level, GSPT1 (GSPT1 protein)",pIC50 (MM.1S cells),pIC50 (Mino cells),concentration at which significant degradation effects on IKZF3 protein are exhibited (FIG. 1) (IKZF3 protein; [2]),concentration at which significant degradation effects on IKZF1 protein are exhibited (FIG. 1) (IKZF1 protein; [2]),concentration at which significant degradation effects on GSPT1 protein are exhibited (FIG. 1) (GSPT1 protein; [2]),pIC50 (Daudi cells)
"O=C1CCC(N2Cc3cc(C(=O)N4CC5CN(Cc6ccccc6-c6ccc(Cl)cc6)CC5C4)ccc3C2=O)C(=O)N1 (stereo not shown) [GT-05642, 3-(5-(5-((4′-chloro-[1,1′-biphenyl]-2-yl)methyl)octahydropyrrolo[3,4-c]pyrrole-2-carbonyl)-1-oxoisoindolin-2-yl)piperidine-2,6-dione]",6.31,B (B represents a residual substrate protein level of >50%),7.00 to 7.30,B (B represents a residual substrate protein level of >50%),A (A represents a residual substrate protein level of <50%),6.30 to 7.00,,,,,
"CC1(C)CCC(CN2CCN(Cc3ccc4c(c3)CN(C3CCC(=O)NC3=O)C4=O)CC2)=C(c2ccco2)C1 (stereo not shown) [GT-05790, 3-(5-((4-((2-(furan-2-yl)-4,4-dimethylcyclohex-1-en-1-yl)methyl)piperazin-1-yl)methyl)-1-oxoisoindolin-2-yl)piperidine-2,6-dione]",6.24,,7.00 to 7.30,,,7.30 to 8.00,7.30 to 8.00,,,,
"O=C1CCC(N2Cc3cc(CN4CC5(C4)CN(Cc4ccccc4-c4ccc(Cl)cc4)C5)ccc3C2=O)C(=O)N1 (stereo not shown) [GT-05709, 3-(5-((6-((4′-chloro-[1,1′-biphenyl]-2-yl)methyl)-2,6-diazaspiro[3.3]heptan-2-yl)methyl)-1-oxoisoindolin-2-yl)piperidine-2,6-dione]",6.18,A (A represents a residual substrate protein level of <50%),7.30 to 8.00,A (A represents a residual substrate protein level of <50%),A (A represents a residual substrate protein level of <50%),7.30 to 8.00,7.00 to 7.30,,,,
"O=C1CCC(N2Cc3cc(CN4CC5(CCN(C(=O)c6ccccc6-c6ccc(Cl)cc6)CC5)C4)ccc3C2=O)C(=O)N1 (stereo not shown) [GT-05620, 3-(5-((7-(4′-chloro-[1,1′-biphenyl]-2-carbonyl)-2,7-diazaspiro[3.5]nonan-2-yl)methyl)-1-oxoisoindolin-2-yl)piperidine-2,6-dione]",6.23,,6.30 to 7.00,,,7.30 to 8.00,6.30 to 7.00,< 3 nM,< 3 nM,< 3 nM,
"CC1(C)CCC(C(=O)N2CC3(CN(Cc4ccc5c(c4)CN(C4CCC(=O)NC4=O)C5=O)C3)C2)=C(c2ccc(Cl)cc2)C1 (stereo not shown) [GT-05681, 3-(5-((6-(4′-chloro-5,5-dimethyl-3,4,5,6-tetrahydro-[1,1′-biphenyl]-2-carbonyl)-2,6-diazaspiro[3.3]heptan-2-yl)methyl)-1-oxoisoindolin-2-yl)piperidine-2,6-dione]",6.34,A (A represents a residual substrate protein level of <50%),6.30 to 7.00,B (B represents a residual substrate protein level of >50%),A (A represents a residual substrate protein level of <50%),7.00 to 7.30,6.30 to 7.00,,,,
"O=C1CCC(N2Cc3cc(CN4CCN(Cc5ccccc5-c5cncs5)CC4)ccc3C2=O)C(=O)N1 (stereo not shown) [GT-05684, 3-(1-oxo-5-((4-(2-(thiazol-5-yl)benzyl)piperazin-1-yl)methyl)isoindolin-2-yl)piperidine-2,6-dione]",6.27,A (A represents a residual substrate protein level of <50%),6.30 to 7.00,A (A represents a residual substrate protein level of <50%),A (A represents a residual substrate protein level of <50%),7.00 to 7.30,7.30 to 8.00,,,,
"O=C1CCC(N2Cc3cc(CN4CCN(Cc5ccccc5-c5ccc(Cl)cc5)CC4C(F)(F)F)ccc3C2=O)C(=O)N1 (stereo not shown) [GT-05711, 3-(5-((4-((4′-chloro-[1,1′-biphenyl]-2-yl)methyl)-2-(trifluoromethyl)piperazin-1-yl)methyl)-1-oxoisoindolin-2-yl)piperidine-2,6-dione]",6.31,,6.30 to 7.00,,,,,,,,
"CC1(C)CCC(CN2CCN(Cc3cc4c(cc3F)C(=O)N(C3CCC(=O)NC3=O)C4)C(C(F)(F)F)C2)=C(c2ccc(Cl)cc2)C1 (stereo not shown) [GT-06101, 3-(5-((4-((4′-chloro-5,5-dimethyl-3,4,5,6-tetrahydro-[1,1′-biphenyl]-2-yl)methyl)-2-(trifluoromethyl)piperazin-1-yl)methyl)-6-fluoro-1-oxoisoindolin-2-yl)piperidine-2,6-dione]",,,6.00 to 6.30,,,,,,,,
"CC1(C)CCC(CN2CCN(Cc3ccc4c(c3)C(=O)N(C3CCC(=O)NC3=O)C4=O)CC2)=C(c2ccc(Cl)cc2)C1 (stereo not shown) [GT-05364, 5-((4-((4′-chloro-5,5-dimethyl-3,4,5,6-tetrahydro-[1,1′-biphenyl]-2-yl)methyl)piperazin-1-yl)methyl)-2-(2,6-dioxopiperidin-3-yl)isoindoline-1,3-dione]",,A (A represents a residual substrate protein level of <50%),6.30 to 7.00,A (A represents a residual substrate protein level of <50%),A (A represents a residual substrate protein level of <50%),6.30 to 7.00,,,,,
"O=C1CCC(N2Cc3cc(CN4CC5CCC(C4)N5C(=O)c4ccccc4-c4ccc(Cl)cc4)ccc3C2=O)C(=O)N1 (stereo not shown) [GT-05542, 3-(5-((8-(4′-chloro-[1,1′-biphenyl]-2-carbonyl)-3,8-diazabicyclo[3.2.1]octan-3-yl)methyl)-1-oxoisoindolin-2-yl)piperidine-2,6-dione]",6.36,,7.30 to 8.00,,,7.30 to 8.00,> 8.30,,,,
"O=C1CCC(N2Cc3cc(C(=O)N4CCC(Nc5ccccc5-c5ccc(Cl)cc5)CC4)ccc3C2=O)C(=O)N1 (stereo not shown) [GT-05646, 3-(5-(4-((4′-chloro-[1,1′-biphenyl]-2-yl)amino)piperidine-1-carbonyl)-1-oxoisoindolin-2-yl)piperidine-2,6-dione]",5.99,B (B represents a residual substrate protein level of >50%),6.30 to 7.00,B (B represents a residual substrate protein level of >50%),A (A represents a residual substrate protein level of <50%),6.30 to 7.00,,,,,
"O=C1CCC(N2C(=O)c3ccc(CN4CCN(Cc5ccc(-c6ccc(Cl)cc6)cc5)CC4)cc3C2=O)C(=O)N1 (stereo not shown) [GT-05599, 5-((4-((4′-chloro-[1,1′-biphenyl]-4-yl)methyl)piperazin-1-yl)methyl)-2-(2,6-dioxopiperidin-3-yl)isoindoline-1,3-dione]",5.78,A (A represents a residual substrate protein level of <50%),,A (A represents a residual substrate protein level of <50%),B (B represents a residual substrate protein level of >50%),6.00 to 6.30,6.30 to 7.00,,,,
"O=C1CCC(N2Cc3cc(CN4CCN(Cc5ccc(-c6ccncc6)nc5)CC4)ccc3C2=O)C(=O)N1 (stereo not shown) [GT-05633, 3-(5-((4-([2,4′-bipyridin]-5-ylmethyl)piperazin-1-yl)methyl)-1-oxoisoindolin-2-yl)piperidine-2,6-dione]",6.12,A (A represents a residual substrate protein level of <50%),,A (A represents a residual substrate protein level of <50%),B (B represents a residual substrate protein level of >50%),,> 8.30,,,,6.30 to 7.00
"Cc1ccc(C2=C(CN3CCN(Cc4ccc5c(c4)C(=O)N(C4CCC(=O)NC4=O)C5=O)CC3)CCC(C)(C)C2)cc1 (stereo not shown) [GT-05793, 2-(2,6-dioxopiperidin-3-yl)-5-((4-((4′,5,5-trimethyl-3,4,5,6-tetrahydro-[1,1′-biphenyl]-2-yl)methyl)piperazin-1-yl)methyl)isoindoline-1,3-dione]",,A (A represents a residual substrate protein level of <50%),6.30 to 7.00,B (B represents a residual substrate protein level of >50%),A (A represents a residual substrate protein level of <50%),6.30 to 7.00,6.30 to 7.00,,,,
"CC1(C)CCC(C(=O)N2CCN(Cc3cc4c(cc3F)C(=O)N(C3CCC(=O)NC3=O)C4)CC2)=C(c2ccc(Cl)cc2)C1 (stereo not shown) [GT-05526, 3-(5-((4-(4′-chloro-5,5-dimethyl-3,4,5,6-tetrahydro-[1,1′-biphenyl]-2-carbonyl)piperazin-1-yl)methyl)-6-fluoro-1-oxoisoindolin-2-yl)piperidine-2,6-dione]",6.16,B (B represents a residual substrate protein level of >50%),6.00 to 6.30,B (B represents a residual substrate protein level of >50%),A (A represents a residual substrate protein level of <50%),,,,,,
